Where “and” joins values, the source holds several entries; their conditions need not be identical. Identical values can stand only once. Marks after values point to notes of the source that are not given here.
Columns and labels:
Assay type in all cases: cell-based, human
[1] = test system: CDK4; assay: qPCR gene expression of CDK4 in MCF7 cells; conditions: treatment with IC50 conc., negative control = 1
Method: (§1) Total RNA was isolated from breast and pancreatic cancer cell lines according to the manufacturer's protocol using RNeasy Mini Kit (Qiagen) supplemented with the DNaseI (Qiagen) digestion step. To digest DNA residues, the isolated total RNA was treated with one unit of RQ1 RNAse-free DNAse (Invitrogen), re-suspended in DEPC-treated water, and quantified using a spectrophotometer at 260 nm. The purity of total RNA was assessed by the 260/280 nm ratio, which was between 1.8 and 2.1. Moreover, RNA integrity was assured by ethidium bromide-stain analysis of 28S and 18S bands by formaldehyde-containing agarose gel electrophoresis. Complete poly(A)+ RNA isolated from breast and pancreatic cell lines was reverse-transcribed into cDNA in a total volume of 20 μl using the RevertAidTM First Strand cDNA Synthesis Kit (Fermentas). […] Subsequently, the reaction tubes containing RT preparations were flash-cooled in an ice chamber until used for cDNA amplification using a quantitative real-time polymerase chain reaction (qRT-PCR).
(§2) Determination of the breast and pancreatic cell line cDNA copy number was carried out using the StepOne™ Real-Time PCR system from Applied Biosystems (Thermo Fisher Scientific). […] The relative quantification of the target to the reference was performed using the 2^−ΔΔCT method (Yang et al., 2017).[51]

[2] = test system: Bcl-2; assay: qPCR gene expression of Bcl-2 in MCF7 cells; conditions: treatment with IC50 conc., negative control = 1
Method: as §1, §2

[3] = test system: P21; assay: qPCR gene expression of P21 in MCF7 cells; conditions: treatment with IC50 conc., negative control = 1
Method: as §1, §2

[4] = test system: MCF-7; assay: Comet assay (DNA damage), breast cancer cell line; conditions: for DNA damaged cells% (mean ± SEM): MCF-7, comet assay, −ve 9.63 ± 0.64; for No. of cells, Comets: MCF-7, of 405 cells analyzed; for No. of cells, Class 0 / No. of cells, Class 1 / No. of cells, Class 2 / No. of cells, Class 3: MCF-7, of 405 cells; for No. of cells, Class 0: class 0 = no tail; for No. of cells, Class 1: class 1 = tail length < diameter of nucleus; for No. of cells, Class 2: class 2 = tail length between 1× and 2× the diameter of nucleus; for No. of cells, Class 3: class 3 = tail length > 2× the diameter of nucleus
Method: (§3) Olive et al. (1990) used pancreatic and breast cancer cell lines to measure the DNA damage using the comet test.[53] Approximately 1.5 × 10^4 cells were imbedded in 0.75% low-gelling-temperature agarose after trypsin treatment to generate a single-cell suspension, which was then quickly pipetted onto a pre-coated microscope slide. Cell samples were lysed in 0.5% SDS, 30 mM EDTA, pH 8.0, for four hours at 50 °C. Samples were electrophoresed for 25 minutes at 0.6 V cm^−1 after being rinsed overnight at room temperature in Tris/borate/EDTA buffer, pH 8.0. Propidium iodide was then added for staining. A fluorescent microscope equipped with a CCD camera was used to observe the slides, and 150 unique comet photos from each sample were examined to determine the tail moment, DNA content, and percentage of DNA in the tail. To find the fraction of cells with DNA damage that resemble comets in each sample, around 100 cells were analyzed. Based on perceived comet tail length migration and relative proportion of DNA in the nucleus, the non-overlapping cells were randomly chosen and visually assigned a score on an arbitrary scale of 0–3. Class 0 = no detectable DNA damage and no tail; class 1 = tail with a length less than the nucleus diameter; class 2 = tail with length between 1× and 2× the nuclear diameter; and class 3 = tail longer than 2× the nucleus diameter.[54]

[5] = test system: Paca2; assay: Comet assay (DNA damage), pancreatic cancer cell line; conditions: for DNA damaged cells% (mean ± SEM): Paca2, comet assay, −ve 10.12 ± 0.85; for No. of cells, Class 0 / No. of cells, Class 1 / No. of cells, Class 2 / No. of cells, Class 3: Paca2, of 405 cells; for No. of cells, Class 0: class 0 = no tail; for No. of cells, Class 1: class 1 = tail length < diameter of nucleus; for No. of cells, Class 2: class 2 = tail length between 1× and 2× the diameter of nucleus; for No. of cells, Class 3: class 3 = tail length > 2× the diameter of nucleus
Method: as §3

[6] = test system: P53; assay: qPCR gene expression of P53 in PACA2 cells; conditions: treatment with IC50 conc., negative control = 1
Method: as §1, §2

[7] = test system: BID; assay: qPCR gene expression of BID in PACA2 cells; conditions: treatment with IC50 conc., negative control = 1
Method: as §1, §2

[8] = test system: CCND1; assay: qPCR gene expression of CCND1 in PACA2 cells; conditions: treatment with IC50 conc., negative control = 1
Method: as §1, §2

[9] = test system: PACA2 cell lines; assay: DNA fragmentation assay, PACA2; conditions: for DNA fragmentation, Inhibition (%): PACA2; for DNA fragmentation (%) M ± SEM: PACA2, 24 hours of exposure, −ve control 8.3 ± 0.31; for DNA fragmentation, Change: PACA2, change versus −ve control
Method: The DNA fragmentation assay in breast and pancreatic cancer cell lines was performed in accordance with the method of Helmy et al., 2022 (ref. [15]) with some modifications. Briefly, after 24 hours of exposure of breast and pancreatic cancer cell lines to the tested chalcone compounds in different Petri dishes (60 × 15 mm, Greiner), the cells were trypsinized, suspended, homogenized in 1 ml of medium, and centrifuged (10 min at 800 rpm). Low-molecular-weight genomic DNA was extracted as described in Yawata et al., 1998.[52] Approximately 1 × 10^6 cells were plated and treated with the tested substances in various treatments. All the cells (including floating cells) were harvested by trypsinization and washed with Dulbecco's phosphate-buffered saline. Cells were lysed with the lysis buffer containing 10 mM Tris (pH 7.4), 150 mM NaCl, 5 mM EDTA, and 0.5% Triton X-100 for 30 minutes on ice. Lysates were vortexed and cleared by centrifugation at 10 000 g for 20 min. Fragmented DNA in the supernatant was extracted with an equal volume of a neutral phenol/chloroform/isoamyl alcohol mixture (25 : 24 : 1) and analyzed electrophoretically on 2% agarose gels containing 0.1 μg ml^−1 ethidium bromide.

Cc1nn(-c2ccccc2)c(C=CC(=O)c2c(-c3cccs3)nn(-c3ccc([N+](=O)[O-])cc3)c2C)c1Cl [Compound 7d, 3-(4-Chloro-3-methyl-1-phenyl-1H-pyrazol-5-yl)-1-(5-methyl-1-(4-nitrophenyl)-3-(thiophen-2-yl)-1H-pyrazol-4-yl)prop-2-en-1-one]
Gene expression CDK4 [1]: 0.43 fold change/GAPDH | Gene expression Bcl-2 [2]: 0.64 fold change/GAPDH | Gene expression P21 [3]: 3.95 fold change/GAPDH | DNA damaged cells% (mean ± SEM) [4]: 25.93 ± 1.08^a % | No. of cells, Comets [4]: 105 | No. of cells, Class 0 [4]: 300 | No. of cells, Class 1 [4]: 30 | No. of cells, Class 2 [4]: 41 | No. of cells, Class 3 [4]: 34

Cc1c(C(=O)C=Cc2nn(-c3ccccc3)cc2-c2ccc([N+](=O)[O-])cc2)c(-c2cccs2)nn1-c1ccc([N+](=O)[O-])cc1 [Compound 9e, 1-(5-Methyl-1-(4-nitrophenyl)-3-(thiophen-2-yl)-1H-pyrazol-4-yl)-3-(4-(4-nitrophenyl)-1-phenyl-1H-pyrazol-3-yl)prop-2-en-1-one]
DNA damaged cells% (mean ± SEM) [5]: 28.40 ± 1.04% and 28.40 ± 1.04^a % | No. of cells, Comets ([5]; Paca2, of 405 cells analyzed): 115 | No. of cells, Class 0 [5]: 290 | No. of cells, Class 1 [5]: 35 | No. of cells, Class 2 [5]: 37 | No. of cells, Class 3 [5]: 43 | Gene expression P53 [6]: 3.89 fold change/GAPDH | Gene expression BID [7]: 0.48 fold change/GAPDH | Gene expression CCND1 [8]: 0.64 fold change/GAPDH | DNA fragmentation, Inhibition (%) [9]: 24.45% | DNA fragmentation (%) M ± SEM [9]: 24.2 ± 0.57% and 24.2 ± 0.57^a % | DNA fragmentation, Change [9]: 15.9

COc1cccc2c1C(=O)c1c(O)c3c(c(O)c1C2=O)C[C@@](O)(C(=O)CO)C[C@@H]3O[C@H]1C[C@H](N)[C@H](O)[C@H](C)O1 [Doxorubicin, reference compound]
DNA damaged cells% (mean ± SEM) ([5]; listed as Dox): 26.17 ± 1.38% and 26.17 ± 1.38^a % | No. of cells, Class 0 [5]: 299 | No. of cells, Class 1 [5]: 38 | No. of cells, Class 2 [5]: 32 | No. of cells, Class 3 [5]: 36 | Gene expression CDK4 [1]: 0.39 fold change/GAPDH | Gene expression P53 [6]: 2.21 fold change/GAPDH | Gene expression BID [7]: 0.69 fold change/GAPDH | Gene expression CCND1 [8]: 0.79 fold change/GAPDH | Gene expression Bcl-2 [2]: 0.56 fold change/GAPDH | Gene expression P21 [3]: 4.18 fold change/GAPDH | DNA damaged cells% (mean ± SEM) ([4]; listed as Dox): 21.98 ± 0.91^b % | No. of cells, Comets [4]: 89 | No. of cells, Class 0 [4]: 316 | No. of cells, Class 1 [4]: 27 | No. of cells, Class 2 [4]: 33 | No. of cells, Class 3 [4]: 29 | DNA fragmentation, Inhibition (%) [9]: 17.94% | DNA fragmentation (%) M ± SEM [9]: 21.5 ± 0.46% | DNA fragmentation (%) M ± SEM ([9]; listed as PACA (+ve) control): 21.5 ± 0.46^a % | DNA fragmentation, Change [9]: 13.2
